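Each compound was tested at five concentrations against cells in 96-well plates for 48 hours. GI50 = concentration required for 50% inhibition of growth. At the TGI there is no net growth.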
Columns and labels:
Test in all cases: NCI anticancer screen, dose series, 48 h
SK-OV-3 ovarian = tested on: SK-OV-3 ovarian
NCI-H522 lung = tested on: NCI-H522 lung
NCI/ADR-RES ovarian = tested on: NCI/ADR-RES ovarian
RXF 393 renal = tested on: RXF 393 renal
M14 melanoma = tested on: M14 melanoma
TK-10 renal = tested on: TK-10 renal
ACHN renal = tested on: ACHN renal
HOP-92 NSCLC = tested on: HOP-92 NSCLC
SN12C renal = tested on: SN12C renal
PC-3 prostate = tested on: PC-3 prostate
K-562 leukemia = tested on: K-562 leukemia
OVCAR-4 ovarian = tested on: OVCAR-4 ovarian
OVCAR-8 ovarian = tested on: OVCAR-8 ovarian
IGROV1 ovarian = tested on: IGROV1 ovarian
MOLT-4 leukemia = tested on: MOLT-4 leukemia
NCI-H226 lung = tested on: NCI-H226 lung
DU-145 prostate = tested on: DU-145 prostate
SK-MEL-5 melanoma = tested on: SK-MEL-5 melanoma
SF-268 CNS = tested on: SF-268 CNS
A498 renal = tested on: A498 renal
T-47D breast = tested on: T-47D breast
HL-60(TB) leukemia = tested on: HL-60(TB) leukemia
SR leukemia = tested on: SR leukemia
MDA-MB-435 = tested on: MDA-MB-435
HCT-116 colon = tested on: HCT-116 colon
HT29 colon = tested on: HT29 colon
EKVX NSCLC = tested on: EKVX NSCLC
SNB-19 CNS = tested on: SNB-19 CNS
HS 578T breast = tested on: HS 578T breast
OVCAR-3 ovarian = tested on: OVCAR-3 ovarian
CCRF-CEM leukemia = tested on: CCRF-CEM leukemia
RPMI-8226 leukemia = tested on: RPMI-8226 leukemia
LOX IMVI melanoma = tested on: LOX IMVI melanoma
U251 CNS = tested on: U251 CNS
A549 NSCLC = tested on: A549 NSCLC
UO-31 renal = tested on: UO-31 renal
SK-MEL-2 melanoma = tested on: SK-MEL-2 melanoma
786-0 renal = tested on: 786-0 renal
NCI-H460 lung = tested on: NCI-H460 lung
HOP-62 NSCLC = tested on: HOP-62 NSCLC
MDA-MB-231 breast = tested on: MDA-MB-231 breast
OVCAR-5 ovarian = tested on: OVCAR-5 ovarian
UACC-257 melanoma = tested on: UACC-257 melanoma
HCC-2998 colon = tested on: HCC-2998 colon
MCF7 breast = tested on: MCF7 breast
HCT-15 colon = tested on: HCT-15 colon
SK-MEL-28 melanoma = tested on: SK-MEL-28 melanoma
NCI-H23 lung = tested on: NCI-H23 lung
COLO 205 colon = tested on: COLO 205 colon
SW-620 colon = tested on: SW-620 colon
MALME-3M melanoma = tested on: MALME-3M melanoma
SF-539 CNS = tested on: SF-539 CNS
SF-295 CNS = tested on: SF-295 CNS
KM12 colon = tested on: KM12 colon
UACC-62 melanoma = tested on: UACC-62 melanoma
BT-549 breast = tested on: BT-549 breast

SMILES: CCCCN1CCCC[C@@H]1C(=O)N[C@H](C(=O)N(C)[C@H](C[C@@H](OC(C)=O)c1nc(C(=O)NC2CCC(C(=O)OC)CC2)cs1)C(C)C)C(C)C (some centres not stated)
- GI50 (SK-OV-3 ovarian): 2.14 µM
- TGI (SK-OV-3 ovarian): > 25 µM
- GI50 (NCI-H522 lung): 0.897 µM
- TGI (NCI-H522 lung): 7.04 µM
- GI50 (NCI/ADR-RES ovarian): 3.53 µM
- TGI (NCI/ADR-RES ovarian): > 25 µM
- GI50 (RXF 393 renal): 0.995 µM
- TGI (RXF 393 renal): 11.6 µM
- GI50 (M14 melanoma): 0.983 µM
- TGI (M14 melanoma): 18.1 µM
- GI50 (TK-10 renal): > 25 µM
- TGI (TK-10 renal): > 25 µM
- GI50 (ACHN renal): 2.39 µM
- TGI (ACHN renal): > 25 µM
- GI50 (HOP-92 NSCLC): 1.13 µM
- TGI (HOP-92 NSCLC): > 25 µM
- GI50 (SN12C renal): 2.15 µM
- TGI (SN12C renal): > 25 µM
- GI50 (PC-3 prostate): 1.41 µM
- TGI (PC-3 prostate): > 25 µM
- GI50 (K-562 leukemia): 0.691 µM
- TGI (K-562 leukemia): > 25 µM
- GI50 (OVCAR-4 ovarian): 3.95 µM
- TGI (OVCAR-4 ovarian): > 25 µM
- GI50 (OVCAR-8 ovarian): 2.1 µM
- TGI (OVCAR-8 ovarian): > 25 µM
- GI50 (IGROV1 ovarian): 1.88 µM
- TGI (IGROV1 ovarian): > 25 µM
- GI50 (MOLT-4 leukemia): 1.18 µM
- TGI (MOLT-4 leukemia): > 25 µM
- GI50 (NCI-H226 lung): 3.84 µM
- TGI (NCI-H226 lung): > 25 µM
- GI50 (DU-145 prostate): 1.31 µM
- TGI (DU-145 prostate): > 25 µM
- GI50 (SK-MEL-5 melanoma): 1.22 µM
- TGI (SK-MEL-5 melanoma): > 25 µM
- GI50 (SF-268 CNS): 2.29 µM
- TGI (SF-268 CNS): > 25 µM
- GI50 (A498 renal): 6.35 µM
- TGI (A498 renal): > 25 µM
- GI50 (T-47D breast): 1.62 µM
- TGI (T-47D breast): > 25 µM
- GI50 (HL-60(TB) leukemia): 0.732 µM
- TGI (HL-60(TB) leukemia): 2.17 µM
- GI50 (SR leukemia): 0.242 µM
- TGI (SR leukemia): > 25 µM
- GI50 (MDA-MB-435): 0.224 µM
- TGI (MDA-MB-435): 0.736 µM
- GI50 (HCT-116 colon): 1 µM
- TGI (HCT-116 colon): > 25 µM
- GI50 (HT29 colon): 0.96 µM
- TGI (HT29 colon): 13.6 µM
- GI50 (EKVX NSCLC): 1.15 µM
- TGI (EKVX NSCLC): > 25 µM
- GI50 (SNB-19 CNS): 1.83 µM
- TGI (SNB-19 CNS): > 25 µM
- GI50 (HS 578T breast): 1.96 µM
- TGI (HS 578T breast): > 25 µM
- GI50 (OVCAR-3 ovarian): 1.07 µM
- TGI (OVCAR-3 ovarian): > 25 µM
- GI50 (CCRF-CEM leukemia): 1.1 µM
- TGI (CCRF-CEM leukemia): > 25 µM
- GI50 (RPMI-8226 leukemia): 1.1 µM
- TGI (RPMI-8226 leukemia): > 25 µM
- GI50 (LOX IMVI melanoma): 1.36 µM
- TGI (LOX IMVI melanoma): > 25 µM
- GI50 (U251 CNS): 1.18 µM
- TGI (U251 CNS): > 25 µM
- GI50 (A549 NSCLC): 1.68 µM
- TGI (A549 NSCLC): > 25 µM
- GI50 (UO-31 renal): 7.06 µM
- TGI (UO-31 renal): > 25 µM
- GI50 (SK-MEL-2 melanoma): 5.28 µM
- TGI (SK-MEL-2 melanoma): > 25 µM
- GI50 (786-0 renal): 1.5 µM
- TGI (786-0 renal): > 25 µM
- GI50 (NCI-H460 lung): 1.08 µM
- TGI (NCI-H460 lung): > 25 µM
- GI50 (HOP-62 NSCLC): 2.35 µM
- TGI (HOP-62 NSCLC): > 25 µM
- GI50 (MDA-MB-231 breast): 1.89 µM
- TGI (MDA-MB-231 breast): 18.2 µM
- GI50 (OVCAR-5 ovarian): 4.75 µM
- TGI (OVCAR-5 ovarian): > 25 µM
- GI50 (UACC-257 melanoma): 2.42 µM
- TGI (UACC-257 melanoma): > 25 µM
- GI50 (HCC-2998 colon): 4.02 µM
- TGI (HCC-2998 colon): > 25 µM
- GI50 (MCF7 breast): 0.806 µM
- TGI (MCF7 breast): > 25 µM
- GI50 (HCT-15 colon): 0.851 µM
- TGI (HCT-15 colon): 16.8 µM
- GI50 (SK-MEL-28 melanoma): 17.9 µM
- TGI (SK-MEL-28 melanoma): > 25 µM
- GI50 (NCI-H23 lung): 1.5 µM
- TGI (NCI-H23 lung): > 25 µM
- GI50 (COLO 205 colon): 1.26 µM
- TGI (COLO 205 colon): 11.5 µM
- GI50 (SW-620 colon): 1.06 µM
- TGI (SW-620 colon): > 25 µM
- GI50 (MALME-3M melanoma): 1.97 µM
- TGI (MALME-3M melanoma): > 25 µM
- GI50 (SF-539 CNS): 1.49 µM
- TGI (SF-539 CNS): 11.8 µM
- GI50 (SF-295 CNS): 1.01 µM
- TGI (SF-295 CNS): 8.06 µM
- GI50 (KM12 colon): 1.07 µM
- TGI (KM12 colon): > 25 µM
- GI50 (UACC-62 melanoma): 1.06 µM
- TGI (UACC-62 melanoma): > 25 µM
- GI50 (BT-549 breast): 1.4 µM
- TGI (BT-549 breast): > 25 µM

Reference: PubChem BioAssay (NCI)
